# What was measured:
# human GLP-1R = target: T1, human GLP-1R (Homo sapiens, UniProt P43220); assay: Human GLP1R agonist activity, intracellular cAMP accumulation; type: cell-based; settings: HEK-293T cells overexpressing human GLP-1R, 1 hr, read-out: Human GLP1R cAMP EC50, HEK293T
# T1 construct: HEK-293T cells overexpressing full-length human GLP-1R; FLAG (N); host or cells: HEK-293T
# How it was run: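 Frozen assay-ready cells washed and resuspended at 4×10^5 cells/mL in Krebs Ringer buffer, then incubated with compound 1 hr at room temperature in the dark. cAMP read by HTRF (anti-cAMP antibody, d2-cAMP tracer). Normalised to 1 nm GLP-1 (100%) and DMSO (0%).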
# physchem = assay: physchem
# How it was run: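 3 mg of peptide treated with 100 μL portions of 200 mM phosphate buffer pH 7.4, sonicating/vortexing up to 1 min, with further buffer added until fully dissolved. Solubility then quantified by HPLC.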
# C57BL/6J mice = assay: Oral glucose tolerance test (OGTT); type: in vivo; settings: 3 nmol/kg s.c., 24 hours before glucose loading
# How it was run: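 Peptide or vehicle given s.c. at 0.1, 0.3, 3 or 10 nmol/kg (peptide-dependent), 24 h before oral 50% dextrose at 5 ml/kg unless stated otherwise. Blood glucose read at 0, 15, 30 and 60 min. % inhibition = (1−(AUC cpd−AUC naïve)/(AUC veh−AUC naïve))×100.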
# T1 sequence (P43220 24-463): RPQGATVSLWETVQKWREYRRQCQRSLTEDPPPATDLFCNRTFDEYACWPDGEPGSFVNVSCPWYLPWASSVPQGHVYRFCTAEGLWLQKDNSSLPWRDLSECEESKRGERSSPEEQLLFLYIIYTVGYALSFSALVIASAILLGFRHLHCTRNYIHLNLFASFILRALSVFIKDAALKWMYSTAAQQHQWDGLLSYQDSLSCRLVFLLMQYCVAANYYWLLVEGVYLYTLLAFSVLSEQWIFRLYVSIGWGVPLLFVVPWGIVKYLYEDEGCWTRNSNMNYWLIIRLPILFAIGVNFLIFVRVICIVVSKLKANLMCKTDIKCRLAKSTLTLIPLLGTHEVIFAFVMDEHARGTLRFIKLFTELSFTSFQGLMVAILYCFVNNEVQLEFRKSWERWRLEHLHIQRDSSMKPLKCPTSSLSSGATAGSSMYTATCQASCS
SMILES,EC50 (human GLP-1R),solubility (physchem; pH 7.4),"solubility (physchem; pH 7.4, aqueous buffer)",Oral Glucose Tolerance Test Percent decrease in blood glucose AUC (%) over 60 mins (C57BL/6J mice)
CC[C@H](C)[C@H](NC(=O)[C@H](CO)NC(=O)[C@H](Cc1ccc(O)cc1)NC(=O)[C@H](CC(=O)O)NC(=O)[C@H](CO)NC(=O)[C@@H](NC(=O)[C@H](Cc1ccccc1)NC(=O)[C@@H](NC(=O)CNC(=O)[C@H](CCC(=O)O)NC(=O)C(C)(C)NC(=O)[C@H](Cc1ccc(O)cc1)NC)[C@@H](C)O)[C@@H](C)CC)C(=O)N[C@@H](C)C(=O)N[C@@H](CCCCNC(=O)CNC(=O)CNC(=O)CNC(=O)CNC(=O)CNC(=O)CCCCCCCCCCCCCCCCC(=O)O)C(=O)N[C@@H](CC(=O)O)C(=O)N[C@@H](CCCNC(=N)N)C(=O)NC(C)(C)C(=O)N[C@@H](C)C(=O)N[C@@H](CCC(N)=O)C(=O)NC(C)(C)C(=O)N[C@@H](CC(=O)O)C(=O)N[C@@H](Cc1ccccc1)C(=O)N[C@H](C(=O)N[C@@H](CC(N)=O)C(=O)N[C@@H](Cc1c[nH]c2ccccc12)C(=O)N[C@@H](CC(C)C)C(=O)N[C@@H](CC(C)C)C(=O)N[C@@H](C)C(=O)N[C@@H](CCC(N)=O)C(=O)N[C@@H](CCCCNC(C)=O)C(=O)NCC(=O)O)C(C)C [Compound 81],33.9 nM,≥ 15 mg/mL,≥ 30 mg/mL,66% (3 nmol/kg)
CC[C@H](C)[C@H](NC(=O)[C@H](CO)NC(=O)[C@H](Cc1ccc(O)cc1)NC(=O)[C@H](CC(=O)O)NC(=O)[C@H](CO)NC(=O)[C@@H](NC(=O)[C@H](Cc1ccccc1)NC(=O)[C@@H](NC(=O)CNC(=O)[C@H](CCC(=O)O)NC(=O)C(C)(C)NC(=O)[C@H](Cc1ccc(O)cc1)NC)[C@@H](C)O)[C@@H](C)CC)C(=O)N[C@@H](C)C(=O)N[C@@H](CCCCNC(=O)CNC(=O)CNC(=O)CNC(=O)CNC(=O)CNC(=O)CCCCCCCCCCCCCCCCC(=O)O)C(=O)N[C@@H](CC(=O)O)C(=O)N[C@@H](CCCNC(=N)N)C(=O)NC(C)(C)C(=O)N[C@@H](C)C(=O)N[C@@H](CCC(N)=O)C(=O)NC(C)(C)C(=O)N[C@@H](CC(=O)O)C(=O)N[C@@H](Cc1ccccc1)C(=O)N[C@H](C(=O)N[C@@H](CC(N)=O)C(=O)N[C@@H](Cc1c[nH]c2ccccc12)C(=O)N[C@@H](CC(C)C)C(=O)N[C@@H](CC(C)C)C(=O)N[C@@H](C)C(=O)N[C@@H](CCC(N)=O)C(=O)N[C@@H](CCC(N)=O)C(=O)NCC(=O)O)C(C)C [Compound 82],17.4 nM,≥ 15 mg/mL,≥ 30 mg/mL,72% (3 nmol/kg)
CC[C@H](C)[C@H](NC(=O)[C@H](Cc1ccccc1)NC(=O)[C@@H](NC(=O)CNC(=O)[C@H](CCC(=O)O)NC(=O)C(C)(C)NC(=O)[C@H](Cc1ccc(O)cc1)NC)[C@@H](C)O)C(=O)N[C@@H](CO)C(=O)N[C@@H](CC(=O)O)C(=O)N[C@@H](Cc1ccc(O)cc1)C(=O)N[C@@H](CO)C(=O)N[C@H](C(=O)NC(C)(C)C(=O)N[C@@H](CCCCNC(=O)CNC(=O)CNC(=O)CNC(=O)CNC(=O)CNC(=O)CCCCCCCCCCCCCCCCC(=O)O)C(=O)N[C@@H](CC(=O)O)C(=O)N[C@@H](CCCNC(=N)N)C(=O)NC(C)(C)C(=O)N[C@@H](C)C(=O)N[C@@H](CCC(N)=O)C(=O)NC(C)(C)C(=O)N[C@@H](CC(=O)O)C(=O)N[C@@H](Cc1ccccc1)C(=O)N[C@H](C(=O)N[C@@H](CC(N)=O)C(=O)N[C@@H](Cc1c[nH]c2ccccc12)C(=O)N[C@@H](CC(C)C)C(=O)N[C@@H](CC(C)C)C(=O)N[C@@H](C)C(=O)N[C@@H](CCC(N)=O)C(=O)N[C@@H](CO)C(=O)N1CCC[C@H]1C(=O)NCC(=O)O)C(C)C)[C@@H](C)CC [Compound 83],66.1 nM,≥ 15 mg/mL,≥ 30 mg/mL,68% (3 nmol/kg)
CC[C@H](C)[C@H](NC(=O)[C@H](Cc1ccccc1)NC(=O)[C@@H](NC(=O)CNC(=O)[C@H](CCC(=O)O)NC(=O)C(C)(C)NC(=O)[C@H](Cc1ccc(O)cc1)NC)[C@@H](C)O)C(=O)N[C@@H](CO)C(=O)N[C@@H](CC(=O)O)C(=O)N[C@@H](Cc1ccc(O)cc1)C(=O)N[C@@H](CO)C(=O)N[C@H](C(=O)NC(C)(C)C(=O)N[C@@H](CC(C)C)C(=O)N[C@@H](CC(=O)O)C(=O)N[C@@H](CCCNC(=N)N)C(=O)N[C@@H](CCCCNC(=O)CNC(=O)CNC(=O)CNC(=O)CNC(=O)CNC(=O)CCCCCCCCCCCCCCCCC(=O)O)C(=O)N[C@@H](C)C(=O)N[C@@H](CCC(N)=O)C(=O)NC(C)(C)C(=O)N[C@@H](CC(=O)O)C(=O)N[C@@H](Cc1ccccc1)C(=O)N[C@H](C(=O)N[C@@H](CC(N)=O)C(=O)N[C@@H](Cc1c[nH]c2ccccc12)C(=O)N[C@@H](CC(C)C)C(=O)N[C@@H](CC(C)C)C(=O)N[C@@H](C)C(=O)N[C@@H](CCC(N)=O)C(=O)N[C@@H](CO)C(=O)N1CCC[C@H]1C(=O)NCC(=O)O)C(C)C)[C@@H](C)CC [Compound 88],13.5 nM,≥ 15 mg/mL,≥ 30 mg/mL,64% (3 nmol/kg)
CC[C@H](C)[C@H](NC(=O)[C@H](CO)NC(=O)[C@H](Cc1ccc(O)cc1)NC(=O)[C@H](CC(=O)O)NC(=O)[C@H](CO)NC(=O)[C@@H](NC(=O)[C@H](Cc1ccccc1)NC(=O)[C@@H](NC(=O)CNC(=O)[C@H](CCC(=O)O)NC(=O)C(C)(C)NC(=O)[C@H](Cc1ccc(O)cc1)NC)[C@@H](C)O)[C@@H](C)CC)C(=O)N[C@@H](C)C(=O)N[C@@H](CCCCNC(=O)CNC(=O)CNC(=O)CNC(=O)CNC(=O)CNC(=O)CCCCCCCCCCCCCCCCC(=O)O)C(=O)N[C@@H](CC(=O)O)C(=O)N[C@@H](CCCNC(=N)N)C(=O)NC(C)(C)C(=O)N[C@@H](C)C(=O)N[C@@H](CCC(N)=O)C(=O)NC(C)(C)C(=O)N[C@@H](CC(N)=O)C(=O)N[C@@H](Cc1ccccc1)C(=O)N[C@H](C(=O)N[C@@H](CC(N)=O)C(=O)N[C@@H](Cc1c[nH]c2ccccc12)C(=O)N[C@@H](CC(C)C)C(=O)N[C@@H](CC(C)C)C(=O)N[C@@H](C)C(=O)N[C@@H](CCC(N)=O)C(=O)N[C@@H](CO)C(=O)N1CCC[C@H]1C(=O)NCC(=O)O)C(C)C [Compound 114],11.7 nM,≥ 15 mg/mL,≥ 30 mg/mL,50% (3 nmol/kg)
CC[C@H](C)[C@H](NC(=O)[C@H](CO)NC(=O)[C@H](Cc1ccc(O)cc1)NC(=O)[C@H](CC(=O)O)NC(=O)[C@H](CO)NC(=O)[C@@H](NC(=O)[C@H](Cc1ccccc1)NC(=O)[C@@H](NC(=O)CNC(=O)[C@H](CCC(=O)O)NC(=O)C(C)(C)NC(=O)[C@H](Cc1ccc(O)cc1)NC)[C@@H](C)O)[C@@H](C)CC)C(=O)N[C@@H](C)C(=O)N[C@@H](CC(C)C)C(=O)N[C@@H](CC(=O)O)C(=O)N[C@@H](CCCNC(=N)N)C(=O)N[C@@H](CCCCNC(=O)CNC(=O)CNC(=O)CNC(=O)CNC(=O)CNC(=O)CCCCCCCCCCCCCCCCC(=O)O)C(=O)N[C@@H](C)C(=O)N[C@@H](CCC(N)=O)C(=O)NC(C)(C)C(=O)N[C@@H](CC(=O)O)C(=O)N[C@@H](Cc1ccccc1)C(=O)N[C@H](C(=O)N[C@@H](CCC(=O)O)C(=O)N[C@@H](Cc1c[nH]c2ccccc12)C(=O)N[C@@H](CC(C)C)C(=O)N[C@@H](CC(C)C)C(=O)N[C@@H](C)C(=O)N[C@@H](CCC(N)=O)C(=O)N[C@@H](CCCNC(=N)N)C(=O)NCC(=O)O)C(C)C [Compound 115],40.7 nM,≥ 15 mg/mL,≥ 30 mg/mL,40% (3 nmol/kg)

# Reference: patent publication US20230143604A1, “QW DOSING OF GIP RECEPTOR AGONIST PEPTIDE COMPOUNDS AND USES THEREOF” (TAKEDA PHARMACEUTICAL COMPANY LIMITED, priority 2020, published 2023)
